Experiment: Loading of curcumin to polymeric micelles, UV-vis spectroscopy
Assay type: physicochemical
Protocol: The solution was added dropwise to 3 mL deionized water under stirring at room temperature. The solution was stirred for another 30 min and then dialyzed against deionized water for 24 h (MW cutoff=3500). The solution inside dialysis tubing was collected.

effective concentration of curcumin dispersed in micelle solution (copolymer 1 micelle solution): 187 µg/mL
SMILES: COc1cc(/C=C/C(=O)CC(=O)/C=C/c2ccc(O)c(OC)c2)ccc1O [curcumin, Curcumin]
protection from hydrolysis (in hydrophobic micellar cores): effectively protect curcumin from hydrolysis

Source: patent US9944630B1, “Dithiolane carbonate monomers and polymers thereof” (The Board of Trustees of the Leland Stanford Junior …, priority 2014, dated 2018)
